Measured values published in ChEMBL document CHEMBL4376823, “The discovery of a potent and selective third-generation EGFR kinase inhibitor as a therapy for EGFR L858R/T790M double mutant non-small cell lung cancer” (Eur J Med Chem, 2019).

Legend:
[1] = test system: NCI-H1975; assay: Induction of apoptosis in human NCI-H1975 cells assessed as viable cells at 25 nM incubated for 48 hrs by propidium iodide and annexin-V FITC staining based flow cytometry (reference value: 99.05 %); format: functional; conditions: NCI-H1975, 48 h, read-out: Activity
[2] = MRT (0 to t) in ICR mouse at 10 mg/kg, po; format: ADME, organism-based; conditions: in vivo
[3] = AUC (0 to t) in ICR mouse at 10 mg/kg, po; format: ADME, organism-based; conditions: in vivo
[4] = Selectivity index, ratio of IC50 for human BJ cells to IC50 for human NCI-H1975 cells expressing EGFR T790M/L858R mutant; format: toxicity
[5] = test system: PC-9; assay: Antiproliferative activity against human PC9 cells expressing EGFR L858R mutant assessed as reduction in cell viability incubated for 72 hrs by MTT assay; format: functional, cell-based; conditions: pc-9
[6] = Half life in ICR mouse at 10 mg/kg, po; format: ADME, organism-based; conditions: in vivo
[7] = test system: NCI-H1975; assay: Induction of apoptosis in human NCI-H1975 cells assessed as viable cells at 50 nM incubated for 24 hrs by propidium iodide and annexin-V FITC staining based flow cytometry (reference value: 98.82 %); format: functional; conditions: NCI-H1975, 24 h, read-out: Activity
[8] = test system: NCI-H1975; assay: Induction of apoptosis in human NCI-H1975 cells assessed as necrotic cells at 5 nM incubated for 48 hrs by propidium iodide and annexin-V FITC staining based flow cytometry (reference value: 0.01 %); format: functional
[9] = test system: NCI-H1975; assay: Induction of apoptosis in human NCI-H1975 cells assessed as early apoptotic cells at 50 nM incubated for 24 hrs by propidium iodide and annexin-V FITC staining based flow cytometry (reference value: 0.94 %); format: functional
[10] = Cytotoxicity against human HLF cells expressing EGFR assessed as reduction in cell viability incubated for 72 hrs by MTT assay; format: cell-based
[11] = test system: NCI-H1975; assay: Induction of apoptosis in human NCI-H1975 cells assessed as necrotic cells at 25 nM incubated for 48 hrs by propidium iodide and annexin-V FITC staining based flow cytometry (reference value: 0.01 %); format: functional
[12] = Oral bioavailability in ICR mouse at 10 mg/kg; format: ADME, organism-based; conditions: in vivo
[13] = test system: NCI-H1975; assay: Induction of apoptosis in human NCI-H1975 cells assessed as viable cells at 50 nM incubated for 48 hrs by propidium iodide and annexin-V FITC staining based flow cytometry (reference value: 99.05 %); format: functional; conditions: NCI-H1975, 48 h, read-out: Activity
[14] = MRT (0 to infinity) in ICR mouse at 5 mg/kg, iv; format: ADME, organism-based; conditions: in vivo
[15] = target: T1, Epidermal growth factor receptor (Homo sapiens, UniProt P00533, L858R/T790M); assay: Inhibition of EGFR T790M/L858R mutant in human NCI-H1975 cells assessed as reduction in EGFR Y1068 phosphorylation incubated for 4 hrs by Western blot analysis; format: cell-based
Target sequence in this assay (P00533 whole entry T790M/L858R, looked up): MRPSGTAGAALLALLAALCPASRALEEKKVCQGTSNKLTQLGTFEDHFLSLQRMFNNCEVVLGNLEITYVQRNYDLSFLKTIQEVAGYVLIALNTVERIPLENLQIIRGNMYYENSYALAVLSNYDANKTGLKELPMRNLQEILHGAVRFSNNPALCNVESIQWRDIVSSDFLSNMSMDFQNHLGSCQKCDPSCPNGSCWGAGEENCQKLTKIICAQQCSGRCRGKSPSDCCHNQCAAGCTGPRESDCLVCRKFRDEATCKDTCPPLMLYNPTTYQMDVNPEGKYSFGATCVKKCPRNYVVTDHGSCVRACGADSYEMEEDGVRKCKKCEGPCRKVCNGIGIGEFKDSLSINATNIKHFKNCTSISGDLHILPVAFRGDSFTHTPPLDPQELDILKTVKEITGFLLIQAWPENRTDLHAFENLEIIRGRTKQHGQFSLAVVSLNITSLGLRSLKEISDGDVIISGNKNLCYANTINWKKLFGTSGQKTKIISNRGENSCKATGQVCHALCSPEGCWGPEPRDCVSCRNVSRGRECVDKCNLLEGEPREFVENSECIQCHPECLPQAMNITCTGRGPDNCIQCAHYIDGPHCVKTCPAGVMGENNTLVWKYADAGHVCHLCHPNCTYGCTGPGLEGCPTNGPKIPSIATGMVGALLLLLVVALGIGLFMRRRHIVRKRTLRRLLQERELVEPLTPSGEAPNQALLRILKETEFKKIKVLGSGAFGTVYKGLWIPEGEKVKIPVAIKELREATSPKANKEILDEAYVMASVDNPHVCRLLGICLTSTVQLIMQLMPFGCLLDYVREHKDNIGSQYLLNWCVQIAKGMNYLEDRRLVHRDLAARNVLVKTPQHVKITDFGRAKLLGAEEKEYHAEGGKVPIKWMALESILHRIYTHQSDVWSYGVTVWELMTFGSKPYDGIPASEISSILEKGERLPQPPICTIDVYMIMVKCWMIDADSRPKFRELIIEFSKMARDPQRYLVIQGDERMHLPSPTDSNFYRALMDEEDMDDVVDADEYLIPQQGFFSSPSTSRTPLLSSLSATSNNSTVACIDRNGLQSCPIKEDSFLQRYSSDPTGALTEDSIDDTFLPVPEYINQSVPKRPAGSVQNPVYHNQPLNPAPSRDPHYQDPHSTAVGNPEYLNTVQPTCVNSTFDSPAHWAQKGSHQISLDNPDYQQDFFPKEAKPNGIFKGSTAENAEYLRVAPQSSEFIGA

[16] = Half life in ICR mouse at 5 mg/kg, iv; format: ADME, organism-based; conditions: in vivo
[17] = AUC (0 to infinity) in ICR mouse at 10 mg/kg, po; format: ADME, organism-based; parameters: dose 10 mg/kg, route oral, time infinity; conditions: in vivo
[18] = test system: NCI-H292; assay: Antiproliferative activity against human NCI-H292 cells expressing EGFR assessed as reduction in cell viability incubated for 72 hrs by MTT assay; format: functional, cell-based; conditions: nci-h292
[19] = test system: NCI-H1975; assay: Induction of apoptosis in human NCI-H1975 cells assessed as late apoptotic cells at 25 nM incubated for 72 hrs by propidium iodide and annexin-V FITC staining based flow cytometry (reference value: 0.01 %); format: functional
[20] = target: T1, Epidermal growth factor receptor; assay: Inhibition of recombinant human GST-tagged EGFR T790M/L858R mutant expressed in baculovirus expression system using Tyr 04 as substrate incubated for 1 hr by Z'-LYTE assay
Target sequence in this assay (P00533 25-1210 T790M/L858R limits assumed): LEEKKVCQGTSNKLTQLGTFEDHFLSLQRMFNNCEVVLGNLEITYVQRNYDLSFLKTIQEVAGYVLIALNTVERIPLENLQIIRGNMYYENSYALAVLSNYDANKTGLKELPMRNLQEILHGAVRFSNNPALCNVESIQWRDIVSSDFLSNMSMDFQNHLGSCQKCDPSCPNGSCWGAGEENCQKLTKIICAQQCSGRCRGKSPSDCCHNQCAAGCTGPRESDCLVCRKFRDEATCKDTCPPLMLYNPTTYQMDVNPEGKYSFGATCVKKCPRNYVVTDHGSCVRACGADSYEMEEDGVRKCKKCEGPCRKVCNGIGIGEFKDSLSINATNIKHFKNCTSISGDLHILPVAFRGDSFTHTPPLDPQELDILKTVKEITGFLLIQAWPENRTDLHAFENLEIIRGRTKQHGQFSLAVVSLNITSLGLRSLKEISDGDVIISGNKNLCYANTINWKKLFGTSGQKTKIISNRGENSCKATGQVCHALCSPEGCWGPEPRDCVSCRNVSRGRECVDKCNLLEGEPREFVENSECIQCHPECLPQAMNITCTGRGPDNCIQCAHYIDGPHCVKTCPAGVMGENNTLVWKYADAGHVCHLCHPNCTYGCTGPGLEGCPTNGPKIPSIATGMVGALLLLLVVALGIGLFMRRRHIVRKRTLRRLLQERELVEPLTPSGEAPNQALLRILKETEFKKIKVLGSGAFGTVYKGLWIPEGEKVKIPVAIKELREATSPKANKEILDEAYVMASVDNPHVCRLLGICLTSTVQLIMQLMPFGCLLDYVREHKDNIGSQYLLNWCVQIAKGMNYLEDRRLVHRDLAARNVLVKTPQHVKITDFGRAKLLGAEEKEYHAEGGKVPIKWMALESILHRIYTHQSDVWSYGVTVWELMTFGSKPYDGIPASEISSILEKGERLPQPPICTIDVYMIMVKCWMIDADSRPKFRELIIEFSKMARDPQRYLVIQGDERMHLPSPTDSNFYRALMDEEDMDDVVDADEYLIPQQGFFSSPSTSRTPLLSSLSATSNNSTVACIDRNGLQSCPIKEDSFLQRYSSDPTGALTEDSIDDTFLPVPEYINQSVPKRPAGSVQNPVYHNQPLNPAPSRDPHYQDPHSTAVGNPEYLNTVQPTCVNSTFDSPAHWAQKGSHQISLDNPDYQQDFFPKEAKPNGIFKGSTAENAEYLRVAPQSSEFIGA

[21] = test system: NCI-H1975; assay: Induction of apoptosis in human NCI-H1975 cells assessed as viable cells at 25 nM incubated for 24 hrs by propidium iodide and annexin-V FITC staining based flow cytometry (reference value: 98.82 %); format: functional; conditions: NCI-H1975, 24 h, read-out: Activity
[22] = Selectivity index, ratio of IC50 for human HEK293A cells to IC50 for human NCI-H1975 cells expressing EGFR T790M/L858R mutant; format: toxicity
[23] = test system: NCI-H1975; assay: Induction of apoptosis in human NCI-H1975 cells assessed as necrotic cells at 25 nM incubated for 72 hrs by propidium iodide and annexin-V FITC staining based flow cytometry (reference value: 0.01 %); format: functional
[24] = test system: NCI-H1975; assay: Induction of apoptosis in human NCI-H1975 cells assessed as necrotic cells at 5 nM incubated for 24 hrs by propidium iodide and annexin-V FITC staining based flow cytometry (reference value: 0.01 %); format: functional
[25] = test system: NCI-H1975; assay: Induction of apoptosis in human NCI-H1975 cells assessed as late apoptotic cells at 25 nM incubated for 24 hrs by propidium iodide and annexin-V FITC staining based flow cytometry (reference value: 0.23 %); format: functional
[26] = Cytotoxicity against human HEK293A cells expressing EGFR assessed as reduction in cell viability incubated for 72 hrs by MTT assay; format: cell-based, HEK293-A; conditions: hek293-a
[27] = test system: NCI-H1975; assay: Induction of apoptosis in human NCI-H1975 cells assessed as viable cells at 5 nM incubated for 48 hrs by propidium iodide and annexin-V FITC staining based flow cytometry (reference value: 99.05 %); format: functional; conditions: NCI-H1975, 48 h, read-out: Activity
[28] = test system: NCI-H1975; assay: Antiproliferative activity against human NCI-H1975 cells expressing EGFR T790M/L858R mutant assessed as reduction in cell viability incubated for 72 hrs by MTT assay; format: functional, cell-based; conditions: nci-h1975
[29] = Tmax in ICR mouse at 5 mg/kg, iv; format: ADME, organism-based; conditions: in vivo
[30] = test system: NCI-H1975; assay: Induction of apoptosis in human NCI-H1975 cells assessed as viable cells at 5 nM incubated for 72 hrs by propidium iodide and annexin-V FITC staining based flow cytometry (reference value: 97.55 %); format: functional; conditions: NCI-H1975, 72 h, read-out: Activity
[31] = AUC (0 to infinity) in ICR mouse at 5 mg/kg, iv; format: ADME, organism-based; parameters: dose 5 mg/kg, time infinity, route intravenous; conditions: in vivo
[32] = target: Epidermal growth factor receptor (Homo sapiens, UniProt P00533); assay: Inhibition of recombinant human GST-tagged EGFR (668 to 1210 residues) expressed in baculovirus expression system using Tyr 04 as substrate incubated for 1 hr by Z'-LYTE assay
[33] = AUC (0 to t) in ICR mouse at 5 mg/kg, iv; format: ADME, organism-based; conditions: in vivo
[34] = target: Epidermal growth factor receptor (Homo sapiens, UniProt P00533, L858R); assay: Inhibition of recombinant human GST-tagged EGFR L858R mutant expressed in baculovirus expression system using Tyr 04 as substrate incubated for 1 hr by Z'-LYTE assay
[35] = test system: NCI-H1975; assay: Induction of apoptosis in human NCI-H1975 cells assessed as viable cells at 50 nM incubated for 72 hrs by propidium iodide and annexin-V FITC staining based flow cytometry (reference value: 97.55 %); format: functional; conditions: NCI-H1975, 72 h, read-out: Activity

Epidermal growth factor receptor (Homo sapiens, UniProt P00533), sequence (P00533 whole entry, the tested form may be a part): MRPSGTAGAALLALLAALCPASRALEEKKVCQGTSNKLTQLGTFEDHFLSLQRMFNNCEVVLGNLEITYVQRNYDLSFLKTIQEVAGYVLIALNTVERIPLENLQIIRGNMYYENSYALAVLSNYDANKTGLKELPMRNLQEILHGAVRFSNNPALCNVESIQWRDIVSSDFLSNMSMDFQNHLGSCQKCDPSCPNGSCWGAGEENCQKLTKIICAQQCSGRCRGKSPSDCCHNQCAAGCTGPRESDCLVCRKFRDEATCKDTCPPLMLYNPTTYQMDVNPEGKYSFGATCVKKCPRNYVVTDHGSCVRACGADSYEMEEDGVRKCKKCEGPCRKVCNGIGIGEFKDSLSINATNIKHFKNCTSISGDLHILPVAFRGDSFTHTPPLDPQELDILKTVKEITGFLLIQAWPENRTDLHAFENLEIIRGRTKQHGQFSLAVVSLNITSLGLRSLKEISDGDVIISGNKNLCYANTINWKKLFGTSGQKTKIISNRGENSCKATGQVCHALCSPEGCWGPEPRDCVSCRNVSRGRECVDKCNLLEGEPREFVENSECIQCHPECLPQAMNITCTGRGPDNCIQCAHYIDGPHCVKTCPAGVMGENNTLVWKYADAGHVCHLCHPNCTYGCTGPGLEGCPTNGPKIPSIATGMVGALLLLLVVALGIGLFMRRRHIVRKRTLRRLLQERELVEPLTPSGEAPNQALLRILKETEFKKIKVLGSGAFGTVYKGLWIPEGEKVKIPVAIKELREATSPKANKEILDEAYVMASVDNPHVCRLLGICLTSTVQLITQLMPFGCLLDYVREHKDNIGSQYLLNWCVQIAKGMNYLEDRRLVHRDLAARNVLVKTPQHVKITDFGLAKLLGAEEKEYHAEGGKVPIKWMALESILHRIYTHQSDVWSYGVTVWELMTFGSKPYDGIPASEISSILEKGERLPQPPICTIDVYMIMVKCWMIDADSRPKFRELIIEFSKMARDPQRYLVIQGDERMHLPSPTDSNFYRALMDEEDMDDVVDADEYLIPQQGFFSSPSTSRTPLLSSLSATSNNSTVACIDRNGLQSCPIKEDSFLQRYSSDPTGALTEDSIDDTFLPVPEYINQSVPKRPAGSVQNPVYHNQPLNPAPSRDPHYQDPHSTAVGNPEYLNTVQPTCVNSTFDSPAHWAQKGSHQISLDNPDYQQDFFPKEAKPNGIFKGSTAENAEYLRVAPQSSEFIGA
Epidermal growth factor receptor (Homo sapiens, UniProt P00533, L858R), sequence (P00533 25-1210 L858R limits assumed): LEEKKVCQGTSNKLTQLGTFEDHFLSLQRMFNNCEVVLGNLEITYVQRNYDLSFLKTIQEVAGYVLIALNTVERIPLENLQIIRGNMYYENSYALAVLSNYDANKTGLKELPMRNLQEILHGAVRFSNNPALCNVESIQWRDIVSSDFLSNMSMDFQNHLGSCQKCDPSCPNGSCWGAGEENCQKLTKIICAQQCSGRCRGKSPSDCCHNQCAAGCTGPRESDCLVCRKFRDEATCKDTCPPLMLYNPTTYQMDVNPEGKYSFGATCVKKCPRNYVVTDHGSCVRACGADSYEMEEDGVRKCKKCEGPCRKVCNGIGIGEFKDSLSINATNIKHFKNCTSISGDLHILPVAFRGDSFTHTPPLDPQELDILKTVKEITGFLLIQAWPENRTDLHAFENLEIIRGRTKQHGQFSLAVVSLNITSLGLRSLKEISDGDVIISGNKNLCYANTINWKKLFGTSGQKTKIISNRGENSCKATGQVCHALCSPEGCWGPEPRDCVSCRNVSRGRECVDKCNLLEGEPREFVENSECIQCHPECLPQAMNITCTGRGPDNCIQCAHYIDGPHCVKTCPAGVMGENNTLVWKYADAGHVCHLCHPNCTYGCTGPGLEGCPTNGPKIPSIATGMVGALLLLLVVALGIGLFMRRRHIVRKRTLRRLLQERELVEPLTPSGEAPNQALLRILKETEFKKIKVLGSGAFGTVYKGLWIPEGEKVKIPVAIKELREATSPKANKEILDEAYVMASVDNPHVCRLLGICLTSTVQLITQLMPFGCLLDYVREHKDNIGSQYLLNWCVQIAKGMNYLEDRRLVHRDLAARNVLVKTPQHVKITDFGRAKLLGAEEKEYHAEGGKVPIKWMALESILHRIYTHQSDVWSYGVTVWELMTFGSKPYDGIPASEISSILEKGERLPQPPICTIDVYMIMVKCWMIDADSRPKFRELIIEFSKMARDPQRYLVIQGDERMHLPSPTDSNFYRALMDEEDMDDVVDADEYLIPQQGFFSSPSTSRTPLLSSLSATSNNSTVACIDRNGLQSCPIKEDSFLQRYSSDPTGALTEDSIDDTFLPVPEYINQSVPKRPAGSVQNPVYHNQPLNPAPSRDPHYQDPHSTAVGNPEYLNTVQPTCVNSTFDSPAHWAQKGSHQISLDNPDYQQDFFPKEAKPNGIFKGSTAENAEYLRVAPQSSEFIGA

`C=CC(=O)Nc1cc(Nc2nccc(-c3cn(C)c4ccccc34)n2)c(OC)cc1[S+]([O-])CCN(C)C` (single isomer, unassigned; (-)) showed a viability at 0.025 µM [1] of 44.7%, an MRT last [2] of 2.32 h and an AUC(0-t) [3] of 1910 ng·h/mL. For the same compound, the “Ratio IC50” value [4] was over 1000, the IC50 [5] was 15 nM and the half-life [6] was 1.73 h. For the same compound, the viability at 0.05 µM [7] was 65.6%, the Activity [8] was 0.05% and the Activity [9] was 31.61%. For the same compound, the IC50 [10] was 9140 nM, the Activity [11] was 0.69% and the bioavailability [12] was 73.7%. The viability at 0.05 µM [13] was 13.7%, the MRT inf [14] was 1.21 h and the EC50 [15] was 7.06 nM. It also gave a half-life [16] of 1.12 h, an AUC(0-inf) [17] of 2000 ng·h/mL and an IC50 [18] of 1090 nM. For the same compound, the Activity [19] was 21.68%, the IC50 [20] was 4 nM and the viability at 0.025 µM [21] was 76.8%. For the same compound, the “Ratio IC50” value [22] was 192, the Activity [23] was 1.85% and the Activity [24] was 0.32%. For the same compound, the Activity [25] was 0.86%, the IC50 [26] was 1920 nM and the viability at 0.005 µM [27] was 77%. It also gave an IC50 [28] of 10 nM, a Tmax [29] of 4.8 min and a viability at 0.005 µM [30] of 57.5%. The AUC(0-inf) [31] was 1300 ng·h/mL, the IC50 [32] was 229 nM and the AUC(0-t) [33] was 1290 ng·h/mL. The IC50 [34] was 4 nM and the viability at 0.05 µM [35] was 11.3%.
